Assay results published in patent US12497411B2, “Muscarinic acetylcholine receptor subtype 4 antagonists in the treatment of anemia” (COLD SPRING HARBOR LABORATORY, priority 2019, dated 2025).
pKi: −log10 of the molar value.

Experiments:
[1] = biological target: T1, human recombinant CHRM3 receptor (Homo sapiens, UniProt P20309); assay: Radioligand binding assay, CHRM3; conditions: [3H]4-DAMP (0.2 nM), CHO cell membranes, 60 minutes at room temperature; read-out: Ki M3
T1 construct: expressed in transfected cells; host or cells: CHO cells (membranes)
T1 sequence (P20309 whole entry): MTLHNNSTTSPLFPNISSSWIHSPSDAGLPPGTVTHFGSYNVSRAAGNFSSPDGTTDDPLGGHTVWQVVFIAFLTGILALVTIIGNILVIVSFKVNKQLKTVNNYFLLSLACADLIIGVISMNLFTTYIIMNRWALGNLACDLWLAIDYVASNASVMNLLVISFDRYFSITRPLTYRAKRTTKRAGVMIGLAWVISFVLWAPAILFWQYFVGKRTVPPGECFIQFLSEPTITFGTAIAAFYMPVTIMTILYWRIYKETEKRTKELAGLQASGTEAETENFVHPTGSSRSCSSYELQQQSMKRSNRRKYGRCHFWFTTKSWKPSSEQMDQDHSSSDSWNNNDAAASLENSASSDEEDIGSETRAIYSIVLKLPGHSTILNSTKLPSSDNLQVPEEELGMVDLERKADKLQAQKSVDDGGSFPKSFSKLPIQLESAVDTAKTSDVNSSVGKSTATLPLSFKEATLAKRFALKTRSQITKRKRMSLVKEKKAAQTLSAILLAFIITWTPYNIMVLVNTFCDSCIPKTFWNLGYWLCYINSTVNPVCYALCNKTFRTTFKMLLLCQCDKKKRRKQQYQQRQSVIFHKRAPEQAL
Protocol: PD102807 and Compounds A-K at concentrations of 1×10^−9 M, 1×10^−8 M, 1×10^−7 M, 1×10^−6 M, and 1×10^−5 M were tested in standard binding assays with radioligands and cell membranes with receptors. Compound binding was calculated as a percent inhibition of the binding of a radioactively labeled ligand specific for each target, and the Ki values were determined. For CHRM1, the binding assay was performed using [^3H]pirenzepine (2 nM) as a radioligand and membranes of CHO cells with human recombinant CHRM1 receptor. The incubation time was 60 minutes at room temperature. For CHRM2, the binding assay was performed using [^3H]AF-DX 384 (2 nM) as a radioligand and membranes of CHO cells with human recombinant CHRM2 receptor. The incubation time was also 60 minutes at room temperature. For CHRM3, the binding assay was performed using [^3H]4-DAMP (0.2 nM) as a radioligand and membranes of CHO cells with human recombinant CHRM3 receptor. The incubation time was also 60 minutes at room temperature. For CHRM4, the binding assay was performed using [^3H]4-DAMP (0.2 nM) as a radioligand and membranes of CHO cells with human recombinant CHRM4 receptor. The incubation time was also 60 minutes at room temperature. For CHRM5, the binding assay was performed using [^3H]4-DAMP (0.3 nM) as a radioligand and membranes of CHO cells with human recombinant CHRM5 receptor. The incubation time was also 60 minutes at room temperature.

[2] = biological target: T2, human recombinant CHRM2 receptor (Homo sapiens, UniProt P08172); assay: Radioligand binding assay, CHRM2; conditions: [3H]AF-DX 384 (2 nM), CHO cell membranes, 60 minutes at room temperature; read-out: Ki M2
T2 construct: expressed in transfected cells; host or cells: CHO cells (membranes)
T2 sequence (P08172 1-466): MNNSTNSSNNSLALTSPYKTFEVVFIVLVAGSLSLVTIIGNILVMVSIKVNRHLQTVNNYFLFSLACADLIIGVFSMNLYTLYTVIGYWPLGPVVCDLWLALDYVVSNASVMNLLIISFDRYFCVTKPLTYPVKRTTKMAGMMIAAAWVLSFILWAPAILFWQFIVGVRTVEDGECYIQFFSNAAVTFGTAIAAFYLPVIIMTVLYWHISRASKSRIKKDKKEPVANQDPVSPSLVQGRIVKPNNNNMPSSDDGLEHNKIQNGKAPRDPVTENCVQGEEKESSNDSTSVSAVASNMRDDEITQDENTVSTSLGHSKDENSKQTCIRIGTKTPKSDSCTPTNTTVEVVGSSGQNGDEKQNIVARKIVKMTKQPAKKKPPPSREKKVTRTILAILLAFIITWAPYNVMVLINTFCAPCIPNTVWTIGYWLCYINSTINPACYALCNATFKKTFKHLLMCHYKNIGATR
Summary of the method: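 Membranes from CHO cells expressing each human recombinant receptor; radioligands [^3H]pirenzepine (2 nM) for CHRM1, [^3H]AF-DX 384 (2 nM) for CHRM2, [^3H]4-DAMP at 0.2 nM for CHRM3 and 0.3 nM for CHRM5. Compounds at 1×10^−9 to 1×10^−5 M; 60 min, room temperature. Percent inhibition of radioligand binding; Ki determined.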

[3] = test system: Mouse BFU-Es; assay: Primary mouse BFU-E culture assay (cell expansion); type: cell-based
Protocol: Primary mouse BFU-Es were isolated from mouse embryonic day 14.5 (E14.5) fetal liver and cultured in StemSpan serum-free expansion medium, and the numbers of cells formed were counted during culture. BFU-Es were infected with either viruses encoding control shRNA or viruses encoding shRNAs targeting Chrm4, and numbers of GFP+ cells formed during culture were counted. DMSO or 25 mg/kg oxyphenonium bromide was intraperitoneally injected into the hemolysis mouse model, Mx1-cre Srsf2 P95H/WT MDS mouse model, and aging mouse model. Complete blood count (CBC) was performed after compound injection. CREB ChIP-Seq was performed on BFU-Es after culture with 100 μM oxyphenonium bromide for 45 minutes. RNA-Seq was performed in BFU-Es after being cultured with DMSO or oxyphenonium bromide for 3 days.
BFU-Es were isolated from mouse embryonic day 14.5 fetal liver using fluorescence-activated cell sorting (FACS) method previously described (Flygare et al., Blood 117, 3435-3444 (2011)). BFU-Es were cultured in StemSpan SFEM II medium containing rmSCF (100 ng/ml), EPO (2 U/ml), rmIGF-1 (40 ng/ml), dexamethasone (1 nmol/ml or 10 nmol/ml), oxyphenonium bromide ([…]), and orphenadrine citrate (1 μmol/ml).
BFU-Es were isolated from mouse embryonic day 14.5 fetal liver using fluorescence-activated cell sorting (FACS) method. BFU-Es were cultured in StemSpan SFEM II medium containing rmSCF (100 ng/ml), EPO (2 U/ml), rmIGF-1 (40 ng/ml), dexamethasone (1 nM), together with either DMSO, PCS1055 (5 nM), or PD102807 (3 nM). Numbers of cell formed were counted during in vitro culture.
FIGS. 7 and 8 show the results of the primary BFU-E culture assay. […] Highly purified BFU-Es were isolated as lin-Ter-119-CD16/CD32-Sca-1-CD41-c-Kit+CD71/Cd24a^10% low population using the fluorescence-activated cell sorting (FACS) method. BFU-Es were cultured in medium containing rmSCF, EPO, and rmIGF-1, in the presence of PD102807 or Compounds A-K at indicated concentrations.

[4] = test system: PHZ induced hemolytic anemia in C57bl/6 mice; assay: PHZ induced hemolytic anemia mouse model, CBC; type: in vivo; conditions: 100 mg/kg oral once per day, CBC on day 6, vs DMSO control
Protocol: Animal experiments were conducted in the Cold Spring Harbor Laboratory Animal Shared Resource in accordance with Institutional Animal Care and Use Committee-approved procedures. 4-6 weeks old C57bl/6 mice, purchased from Jackson Laboratory and randomly distributed into compound and control treatment groups, were given through oral delivery of PCS1055 (50 mg/kg or 100 mg/kg) twice per day or PD102807 (50 mg/kg or 100 mg/kg) once per day everyday for 3 days. On day 3, mice were intraperitoneally injected with 60 mg/kg PHZ. Mice were then given through oral delivery of PD102807 (50 mg/kg or 100 mg/kg) once per day every day for 2 days. Peripheral blood samples were collected retro-orbitally on day 6 using heparinized capillary tubes in blood collection tubes with K2-EDTA. CBC was performed using Hemavet 950. […] C57bl/6 mice were injected with 60 mg/kg phenylhydrazine to induce hemolysis. Mice were delivered with either vehicle control or Compound A or B (30 mg/kg or 100 mg/kg). Peripheral blood samples were collected retro-orbitally using heparinized capillary tubes into blood collection tubes with K2-EDTA. Complete blood counting was performed using Hemavet 950. Hematocrit (HCT), red blood cell (RBC) and hemoglobin (Hb) values are shown. […] C57bl/6 mice were injected with 60 mg/kg phenylhydrazine to induce hemolysis. Mice were delivered with subcutaneous injection with either vehicle control or Compound B (1.5 mg/kg, 3 mg/kg, or 5 mg/kg) or I (0.5 mg/kg, 0.7 mg/kg, or 1 mg/kg). Peripheral blood samples were collected retro-orbitally using heparinized capillary tubes into blood collection tubes with K2-EDTA. Complete blood counting was performed using Hemavet 950. Hematocrit (HCT), red blood cell (RBC) and hemoglobin (Hb) values are shown.

[5] = biological target: T3, CHRM4 (Homo sapiens, UniProt P08173); conditions: previous reports (Croy 2016; Böhme 2002); cited from earlier work
T3 sequence (P08173 1-479): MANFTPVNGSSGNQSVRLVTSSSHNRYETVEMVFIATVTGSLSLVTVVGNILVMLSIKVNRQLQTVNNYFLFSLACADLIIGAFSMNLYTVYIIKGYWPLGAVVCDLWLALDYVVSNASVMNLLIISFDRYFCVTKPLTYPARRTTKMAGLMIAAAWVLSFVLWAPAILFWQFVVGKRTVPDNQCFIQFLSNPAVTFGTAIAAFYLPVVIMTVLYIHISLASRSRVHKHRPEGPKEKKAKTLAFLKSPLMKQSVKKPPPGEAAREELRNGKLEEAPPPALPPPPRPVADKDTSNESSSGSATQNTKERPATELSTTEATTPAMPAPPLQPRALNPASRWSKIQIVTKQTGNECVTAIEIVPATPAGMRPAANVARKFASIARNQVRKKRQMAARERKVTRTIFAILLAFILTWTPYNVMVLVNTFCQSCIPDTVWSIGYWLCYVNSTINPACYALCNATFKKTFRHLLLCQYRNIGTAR

[6] = biological target: T3, CHRM4; assay: Radioligand binding assay, CHRM4; design: expressed in transfected cells; host or cells: CHO cells (membranes); conditions: [3H]4-DAMP (0.2 nM), CHO cell membranes, 60 minutes at room temperature; read-out: Ki M4

## CCOC(=O)c1c(C)[nH]c2ccc3c(c12)CN1CCc2cc(OC)ccc2C1O3 (centres unmarked) [PD102807, reference compound]
[1]
  pKi: 6.68
[2]
  pKi: 5.60
[3]; 3 nM PD102807
  expansion of BFU-E cells in cell culture: increase the expansion of BFU-E cells
[3]; indicated concentrations, vs untreated
  BFU-E expansion, cell numbers at day 9: induce BFU-E expansion
[4]
  HCT, PHZ-induced anemia: significantly improved
  RBC, PHZ-induced anemia: significantly improved
[5]
  selectivity for CHRM4 over other muscarinic acetylcholine receptor family members: selectively inhibits CHRM4
[6]
  pKi: 8.29
